One data set concerns the target T1, CYP1A2 (Homo sapiens, UniProt P05177).
T1 construct: pre-incubation of the human liver microsomes with the test compound; tissue Corning; host or cells: human liver microsomes
T1 sequence (P05177 1-516): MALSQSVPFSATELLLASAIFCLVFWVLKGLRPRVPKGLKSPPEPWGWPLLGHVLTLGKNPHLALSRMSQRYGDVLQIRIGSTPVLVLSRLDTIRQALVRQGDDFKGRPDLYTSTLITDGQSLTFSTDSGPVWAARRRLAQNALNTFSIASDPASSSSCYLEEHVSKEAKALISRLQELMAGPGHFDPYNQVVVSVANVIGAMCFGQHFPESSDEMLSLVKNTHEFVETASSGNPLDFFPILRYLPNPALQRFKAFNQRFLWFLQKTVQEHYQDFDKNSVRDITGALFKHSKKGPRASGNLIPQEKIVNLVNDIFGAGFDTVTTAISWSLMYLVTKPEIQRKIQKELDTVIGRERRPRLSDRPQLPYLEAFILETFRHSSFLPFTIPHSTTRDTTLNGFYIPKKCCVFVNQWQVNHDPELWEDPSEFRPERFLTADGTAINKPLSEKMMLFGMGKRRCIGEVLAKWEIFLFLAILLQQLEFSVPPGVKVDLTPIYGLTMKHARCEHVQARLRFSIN
The experiment in a line: CYP inhibition / time-dependent inhibition, CYP1A2_Phenacetin. It counts as in vitro ADME. Conditions: role: inhibitor. The procedure: (§1) The time-dependent inactivation potency of the test compound to CYP enzymatic activities was assessed by the pre-incubation of the human liver microsomes with the test compound in the presence and absence of NADPH, followed by the incubation with the discrete marker substrates, as follows.
(§2) Pre-incubation with human liver microsomes (HLMs): The TDI inactivation potency on CYP enzymatic activities was evaluated through pre-incubation with HLMs (Corning). A liver microsome mixture at a concentration of 0.1 mg/mL, and the test compound at 8 different concentrations (0, 0.05, 0.165, 0.5, 1.65, 5.0, 16.5, or 50.0 μM) was warmed at 37° C. for 10 minutes. Concurrently, a set of known time-dependent inactivators was also prepared in duplicate for comparison. Following this, NADPH (1.0 mM) was added to one group (Group 1), and an equal volume of potassium phosphate buffer to the second group (Group 2), marking the beginning of a 30-minute pre-incubation at 37° C.
(§3) Incubation: After pre-incubation, the marker substrate, or marker substrate plus NADPH was added to the mixture, thereby initiating the incubation. The duration of the incubation was dependent on the type of CYP isoform being evaluated. For example, with the CYP3A isoform, the mixture was incubated over 3 minutes utilizing midazolam as the marker substrate (2.0 μM), verapamil as the standard inactivator (3.5 μM).
(§4) Termination of Reaction: Following the incubation, ice-cooled acetonitrile containing the internal standard (IS) was added to halt the reactions. Metabolites generated from the marker substrates were then measured via LC-MS/MS, assessed based on peak area ratios of the analyte to IS.

Data set [1] deals with Spared Nerve Injury (SNI) rats. The experiment in a line: Spared Nerve Injury (SNI) model, von Frey. It is filed as in vivo, rat. How it is done: All animal experiments were carried out according to the Guide for the Care and Use of Laboratory Animals (2011 edition) and approved by the Israel National Institutional Animal Care and Use Committee (IACUC). Young adult male SD rats (Envigo RMS, Israel), were used for in vivo efficacy: Spared Nerve Injury (SNI), Distal Tibial Injury (DTI) and Post-operative Pain (POP), 200-220 grams, Chronic Post-Ischemia Pain (CPIP) 275-325 grams, Monosodium iodoacetate-induced osteoarthritis (MIA-OA) 180-220 grams; for in vivo safety: 200-250 grams at study initiation. […] The health status of the animals used in this study was examined upon their arrival. Only animals in good health were acclimatized to laboratory conditions and were used in the studies. All studies were performed following at least five days of animal acclimation. During acclimation and throughout the entire study duration, animals were housed within a limited-access rodent facility and kept in groups with a maximum of 2-3 rats per polypropylene cage. The cages were fitted with solid bottoms and filled with sterile wood shavings as bedding material. Animals were provided ad libitum with a commercial, sterile rodent diet and had free access to drinking water that was supplied to each cage via polyethylene bottles with stainless steel sipper tubes. A feed lot analysis of the diet batch used in the study was included in the archives with the study data. Water was monitored periodically. Plastic cylinders for playing and hiding and wooden balls or sticks were added to the cages for environmental enrichment.
SNI: The SNI procedure consisted of ligating and dissecting the tibial and common peroneal nerves, thus sparing the sural nerve. Prior to surgery, a dose of 0.03 mg/kg buprenorphine (Temgesic®) was administered to animals as a prophylaxis to alleviate the operative and postoperative pain unrelated to neuropathy. Next, animals were anesthetized with a combination of medetomidine/ketamine sodium IP. While under anesthesia a medio caudal incision of 4-5 mm parallel to the left femur was cut on shaved and disinfected skin. The sciatic nerve was exposed from underneath the muscle layer and isolated gently from the surrounding connective tissue, using curved and blunt forceps. The tibial and common peroneal nerves were first tightly ligated with double knot of 6-0 silk suture, proximally and immediately distal to the sciatic bifurcation. Thereafter, the nerves which run as a pair as physically attached to each other were cut at sites close to the ligatures, thereby removing a length of approximately 0.5 mm of the nerves, necessary to avoid the formation of any re-connection to the nerves. This procedure led to complete denervation of areas of tibial and peroneal innervation in the plantar paw, while neuropathy was developed upon the sural territories. Special care was taken not to manipulate the sural nerve, which thus was left intact. The muscle layers and skin were sutured, and animals were allowed to recover. 0.03 mg/kg buprenorphine SC was administered on postoperative days 1-2, every 12 hours, starting from the evening of Day 0. Rehydration with 4 ml of sterile saline IP was provided directly after the surgery, continuing twice a day for 7 days. The sural nerve innervates the lateral longitudinal third of the plantar paw and therefore, mechanical sensitivity was assessed in this area.
The selection of animals was performed on day 13 post-operation before animals were placed in their experimental groups. Animals with a pain threshold of <4 grams for an operated leg following Von Frey testing were included in the study. To form homogenous treatment groups, all the selected animals were grouped using a random sampling method on study day 13, to form groups with similar pain threshold mean. For blinding purposes, the researcher who dosed the animals with test items was different than the researcher who conducted the VF tests. […]

The next data set relates to rats. Description: Hot plate (53° C.). It counts as in vivo, rat. The procedure: Hot Plate: Animals were placed on hot plate analgesia meter (IITC Life Science Inc., CA, USA) set to 53±1° C., and the time until the first escape response was observed was recorded. A response was considered when the animals lifted or licked their leg or performed kicking behavior.
A further data set addresses T2, CYP2D6 (Homo sapiens, UniProt P10635).
T2 construct: pre-incubation of the human liver microsomes with the test compound; tissue Corning; host or cells: human liver microsomes
The experiment in a line: CYP inhibition / time-dependent inhibition, CYP2D6_Dextromethorphan. It counts as in vitro ADME. Conditions: role: inhibitor. The procedure:
as §1, §2, §3, §4

Structures are written as SMILES. Like-named read-outs stand apart in the source and are kept apart here. A value given as a limit tells only on which side of the number the result lay.

For orientation: IC50 means the concentration needed to halve the response being measured. In general, minimal effective dose refers to the lowest level tested that produced the effect sought.

T2 sequence (P10635 whole entry): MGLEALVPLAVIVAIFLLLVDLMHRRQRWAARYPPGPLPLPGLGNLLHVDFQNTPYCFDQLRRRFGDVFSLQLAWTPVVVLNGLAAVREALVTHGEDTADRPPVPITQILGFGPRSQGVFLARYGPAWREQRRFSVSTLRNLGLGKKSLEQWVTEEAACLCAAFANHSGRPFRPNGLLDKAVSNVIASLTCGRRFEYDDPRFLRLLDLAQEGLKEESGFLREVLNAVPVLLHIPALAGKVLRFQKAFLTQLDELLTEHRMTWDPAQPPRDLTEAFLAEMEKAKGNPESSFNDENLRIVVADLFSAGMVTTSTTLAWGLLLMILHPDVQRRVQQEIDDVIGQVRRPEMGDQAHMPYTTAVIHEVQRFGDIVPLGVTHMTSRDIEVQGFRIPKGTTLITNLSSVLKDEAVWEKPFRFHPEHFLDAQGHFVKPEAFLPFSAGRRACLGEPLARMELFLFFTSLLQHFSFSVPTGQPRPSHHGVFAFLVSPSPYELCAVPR

As to `O=C(Cc1cncc(-n2cc(Cl)c3cc(Cl)cc(Cl)c32)c1)N[C@@H]1COC[C@H]1O` [Compound 661], the IC50 at CYP1A2 ((+)NADPH pre-incubation, substrate phenacetin, read-out: IC50 (+)NADPH CYP1A2_Phenacetin) is more than 50 µM; on CYP1A2 ((−)NADPH pre-incubation, substrate phenacetin, read-out: IC50 (−)NADPH CYP1A2_Phenacetin), more than 50 µM; at CYP2D6 ((+)NADPH pre-incubation, substrate dextromethorphan, read-out: IC50 (+)NADPH CYP2D6_Dextromethorphan) it was 31.7 µM; on CYP2D6 ((−)NADPH pre-incubation, substrate dextromethorphan, read-out: IC50 (−)NADPH CYP2D6_Dextromethorphan) it was 28.5 µM. The “PWT efficacy” value in data set [1] (2 mg/kg PO) was “although not reaching statistical significance, showed an efficacious trend”; in data set [1] (20 mg/kg PO, up to 8 hour post-dose) it was “remained statistically significant up to 8 hour post-dose”. Further, the “Reversal of PWT” value in data set [1] (20 mg/kg PO, 4 hour post-dose) is 53%. Moreover, in data set [1] (100 mg/kg oral, 6 hour post-dose), the “Reversal of mechanical PWT” value stood at 47.2%. Moreover, in the data set with rats (20 and 50 mg/kg PO, 2-10 hours post-dose), the “Hot plate escape latency” value is on record as “no significant effect on escape latency”.
Take `O=C(Cc1nccc(-n2cc(Cl)c3cc(Cl)cc(Cl)c32)n1)NC1COCC1O` (centres unmarked) [Compound 760]: the IC50 at CYP1A2 (Table 9, read-out: CYP inhibition IC50 CYP1A2) was more than 50 µM; at CYP2D6 (Table 9, read-out: CYP inhibition IC50 CYP2D6), more than 50 µM. Moreover, in data set [1] (3-30 mg/kg PO), the “Pain relief in SNI” value was “pain relief comparable to Pregabalin's high and impairing dose”. Moreover, the minimal effective dose in data set [1] (Rattus norvegicus, po) lay within 3 to 30 mg/kg. Further, in the data set on rats (up to 300 mg/kg oral), the “Hot-plate response” value was “displayed safety potential at up to 300 mg/kg oral dosing”.

(Values after patent publication US20260327211A1, “MODULATORS OF A POTASSIUM CHANNEL AND OF TRPV1 CHANNEL AND USES THEREOF” (Bsense Bio Therapeutics Ltd., priority 2023, published 2026).)
